Drawing on article PMC6331893, “Autodisplay of Human Hyaluronidase Hyal-1 on Escherichia coli and Identification of Plant-Derived Enzyme Inhibitors” (Molecules, 2015), this text covers IC50 for 3 molecules.

Like-named read-outs stand apart in the source and are kept apart here.

The target of this assay is T1, human hyaluronidase Hyal-1 (Homo sapiens, UniProt Q12794).
T1 construct: gene HYAL1
T1 sequence (Q12794 22-435): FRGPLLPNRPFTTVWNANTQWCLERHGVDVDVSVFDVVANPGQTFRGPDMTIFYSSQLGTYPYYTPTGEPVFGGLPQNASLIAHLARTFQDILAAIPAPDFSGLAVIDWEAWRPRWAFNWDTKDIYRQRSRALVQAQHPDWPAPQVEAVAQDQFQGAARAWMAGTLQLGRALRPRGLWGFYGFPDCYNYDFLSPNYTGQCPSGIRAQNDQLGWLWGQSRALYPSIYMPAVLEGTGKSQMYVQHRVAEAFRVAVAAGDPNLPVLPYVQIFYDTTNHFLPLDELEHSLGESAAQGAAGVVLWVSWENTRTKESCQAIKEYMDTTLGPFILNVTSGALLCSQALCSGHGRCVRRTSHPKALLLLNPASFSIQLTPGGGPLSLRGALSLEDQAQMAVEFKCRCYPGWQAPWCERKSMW
In words: whole-cell "stains-all" hyaluronidase activity assay with surface-displayed Hyal-1, dose-response. The format is cell-based.

As usually defined, the IC50 is the concentration needed to halve the response being measured. As to `C[C@@H]1O[C@@H](O[C@H]2[C@H](OC(=O)[C@]34CCC(C)(C)C[C@H]3C3=CC[C@@H]5[C@@]6(C)CC[C@H](O[C@H]7O[C@H](C(=O)O)[C@@H](O)[C@H](O[C@@H]8OC[C@@H](O)[C@H](O)[C@H]8O)[C@H]7O[C@@H]7O[C@H](CO)[C@H](O)[C@H](O)[C@H]7O)[C@@](C)(C=O)[C@@H]6CC[C@@]5(C)[C@]3(C)CC4)O[C@H](C)[C@H](O[C@@H]3O[C@H](C)[C@@H](O)[C@H](O)[C@H]3O)[C@@H]2O)[C@H](O)[C@H](O)[C@H]1O[C@@H]1OC[C@@H](O)[C@H](O[C@@H]2OC[C@@H](O)[C@H](O)[C@H]2O)[C@H]1O` [SA1641], the IC50 (read-out: IC50 Value) was found to be 296 µM.

Consider gypsophila saponin 2, for which the IC50 (read-out: IC50 Value) was 108 µM.

For `CC1(C)[C@@H](O[C@H]2O[C@H](C(=O)O)[C@@H](O)[C@H](O)[C@H]2O[C@@H]2O[C@H](C(=O)O)[C@@H](O)[C@H](O)[C@H]2O)CC[C@]2(C)[C@H]3C(=O)C=C4[C@@H]5C[C@@](C)(C(=O)O)CC[C@]5(C)CC[C@@]4(C)[C@]3(C)CC[C@@H]12` [glycyrrhizic acid], the IC50 came to 177 µM.
